Experimental data as given in publication PMC11455950, “Effects of SZV-2649, a new multiple ion channel inhibitor mexiletine analogue” (Scientific Reports, 2024).

Target: T1, GIRK1 (Kir3.1/3.4) potassium channel (Homo sapiens, UniProt P48544+P48549)
T1 construct: host or cells: HEK293
T1 sequence (P48549 1-501): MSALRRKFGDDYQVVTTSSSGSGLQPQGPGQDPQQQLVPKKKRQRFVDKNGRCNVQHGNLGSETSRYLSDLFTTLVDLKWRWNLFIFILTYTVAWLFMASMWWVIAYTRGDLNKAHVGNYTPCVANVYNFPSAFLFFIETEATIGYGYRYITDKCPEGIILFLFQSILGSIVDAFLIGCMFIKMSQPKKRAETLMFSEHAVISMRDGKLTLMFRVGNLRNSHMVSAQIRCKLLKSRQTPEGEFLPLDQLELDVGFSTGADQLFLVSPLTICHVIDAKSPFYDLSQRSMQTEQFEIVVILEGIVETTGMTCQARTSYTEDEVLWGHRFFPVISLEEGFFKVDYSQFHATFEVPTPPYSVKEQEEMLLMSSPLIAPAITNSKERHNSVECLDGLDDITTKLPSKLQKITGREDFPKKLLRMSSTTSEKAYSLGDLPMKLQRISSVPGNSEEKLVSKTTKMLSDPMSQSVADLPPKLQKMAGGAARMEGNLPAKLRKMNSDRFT
T1 sequence (P48544 1-419): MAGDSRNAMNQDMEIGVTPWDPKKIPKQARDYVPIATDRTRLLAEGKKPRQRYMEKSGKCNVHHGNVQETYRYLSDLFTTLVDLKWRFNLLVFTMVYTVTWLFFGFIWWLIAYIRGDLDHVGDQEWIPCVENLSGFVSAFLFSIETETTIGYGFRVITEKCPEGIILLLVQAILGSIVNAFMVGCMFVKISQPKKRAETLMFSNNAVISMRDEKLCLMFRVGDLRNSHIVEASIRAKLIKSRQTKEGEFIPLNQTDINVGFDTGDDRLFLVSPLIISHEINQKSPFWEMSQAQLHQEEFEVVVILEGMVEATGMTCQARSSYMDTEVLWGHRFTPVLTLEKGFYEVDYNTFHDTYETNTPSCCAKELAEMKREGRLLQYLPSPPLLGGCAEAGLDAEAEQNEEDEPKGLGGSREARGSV
Assay: Automated planar patch-clamp, GIRK current in HEK cells
Format: cell-based
Settings: HEK cells (abstract)
Description: Inhibition of the hERG channel, the pore forming α-subunit of the native IKr cardiac potassium channel, is expected to prolong repolarization both in the atria and in the ventricles. The GIRK channel is the pore forming α-subunit of the acetylcholine-activated potassium channel and plays an important role in atrial electrophysiology. Its inhibition can be expected to decrease the acetylcholine-activated potassium current (IKACh), a current that plays an important role in the pathogenesis of AF. Therefore, the effects of SZV-2649 on the hERG and GIRK ion channels were studied by the planar patch-clamp technique in mammalian HEK cell lines stably expressing these channels.
The currents conducted by the hERG and GIRK channels were measured by using planar patch-clamp technology[,[47],[68] in the whole-cell configuration with a four-channel medium-throughput fully automated patch-clamp platform (Patchliner Quattro, Nanion Technologies GmbH, Munich, Germany) with integrated temperature control. […]
For GIRK current measurements (see Fig. 2.), the internal solution was (in mM): K-gluconate 40, NaCl 20, KF 60, EGTA 20 and HEPES 10 (pH 7.2, KOH) supplemented with 0.9 mM GTP before experiments to induce channel activation. […] The invard currents were calculated from the − 140 mV segment. […]

CC(N)COc1c(I)cc(C#N)cc1I.Cl (stereo not shown) [SZV-2649, 4-(2-aminopropoxy)-3,5-diiodobenzonitrile hydrochloride]
IC50: 529 nM
